Source: patent publication US20220056044A1, “TRICYCLIC COMPOUNDS AS STING AGONISTS, AND PREPARATION METHODS AND MEDICINAL USES THEREOF” (Jiangsu Hengrui Medicine Co., Ltd., priority 2018, published 2022)

Legend:
[1] = target: T1, STING in THP1-Dual KI-hSTING-R232 cells (Homo sapiens, UniProt Q86WV6, H232R); experiment: Human THP1 reporter cell assay (IRF luciferase reporter); type: cell-based; conditions: 24 hours incubation
T1 construct: host or cells: THP1-Dual KI-hSTING-R232 cells
Method: Test Example 2. Human THP1 Reporter Cell Assay
1. Human THP1-Dual KI-hSTING-R232 Cells (InvivoGen, Cat. #thpd-r232)
Activation of STING in THP1-Dual KI-hSTING-R232 cells was determined by measuring the luminescence signal resulting from the expression of the IRF luciferase reporter gene. All reagent preparation and assay procedures were conducted according to the protocols provided by InvivoGen. In brief, test compounds and cells (1×10^5 cells per well) were dispensed into 96-well plates with a final volume per well of 150 μl. Plates were incubated in a humidified, 5% CO2 incubator at 37° C. for 24 hours. The expression level of the reporter gene was measured by transferring 20 μl of the supernatant to a non-transparent 96-well plate to which 50 μl of QUANTI-LUC was dispensed into each well. The resulting luminescence signal was immediately read using a TECAN plate reader. The background luminescence signal from media was subtracted. The fold induction effect of the luminescence signal at each compound concentration was determined relative to controls that lack compound treatment. The plot of fold induction effect versus the log of compound concentration was fit in GraphPad Prism with a 4-parameter concentration response equation to calculate EC50 and Emax.
Activation of STING in THP1 of the compounds in the present invention was determined by the above assay, and EC50 values are shown in the following Table 4.

[2] = tested on: Human PBMC cells; experiment: IFNβ secretion from human PBMC (ELISA); type: cell-based; conditions: 5 hours incubation, IFNβ in supernatant by ELISA
Method: Test Example 3. IFNβ Secretion from Human PBMC
1. Human PBMC cells (STEMCELL Technologies)
Cryopreserved peripheral blood human mononuclear cells (PBMCs) were rapidly thawed and resuspended in Lymphocyte Media and centrifuged at 500×g for 5 minutes. The supernatant was removed and the cell pellets were gently resuspended in cell culture and compound dilution media. Then the cells were plated in a 96-well format at a concentration of 1.5×10^5 per well. The test compounds, at varying concentrations, or vehicle control (<0.3% DMSO) were mixed with the cells giving a final volume of 150 μl per well. The plates were incubated in a humidified, 5% CO2 incubator at 37° C. for 5 hours. After incubation, the human IFNβ in the supernatant and the IFNβ standard controls were measured using human IFNβ Quantikine ELISA kit according to the manufacturer's protocol. The absorbance at 450 nm was measured with Infinite M1000 plate reader and corrected by background reading at 540 nm of each well. The concentration of IFNβ secreted was calculated based on the standard curves. The plot of IFNβ concentration versus the log of compound concentration was fit in GraphPad Prism with a 4-parameter concentration response equation to calculate EC50 and Emax (see Table 5).

[3] = target: T2, hSTING R232 c-terminal domain (Homo sapiens, UniProt Q86WV6, H232R); experiment: Thermal shift assay for measuring the relative binding affinity to hSTING R232 c-terminal domain; conditions: purified hSTING R232 (aa154-342), SYPRO Orange, Tm minus mean Tm of negative control
T2 construct: Purified hSTING R232 (aa154-342)
Method: Thermal shift assay for measuring the relative binding affinity to hSTING R232 c-terminal domain.
From each of the 10 mM stock solutions of compounds in DMSO, dilutions are made to create samples with three concentrations 10 mM, 5 mM, and 2.5 mM. From these dilutions a final 50-fold dilution is made into assay buffer, giving concentrations of 200 μM, 100 μM, and 50 μM. From each of the buffer dilutions, 5 μL is added to the 384 well assay plate. A positive control is setup with cGAMP using the same dilution scheme as the ligands. A baseline thermal shift for the negative control is determined using buffer and 2% DMSO.
An aliquot of protein is thawed on ice and SYPRO orange reagent is brought to room temperature. The 5000×SYPRO orange stock is diluted in assay buffer to a concentration of 10×. Protein is diluted to a concentration of 10 μM in the prepared buffer/dye solution. Five micro-liters of protein/buffer/dye solution is added to each of the sample and control wells, and the plate is sealed with the provided films. The plate is centrifuged for 5 min at 20° C. at 1000 rpm.
On the Light Cycler instrument, measurements are made over a temperature gradient from 20° C. to 99° C. at 0.07° C./s and data acquisitions collected at a rate of 8/° C. are used to measure the change in fluorescence as a function of temperature. Data analysis is performed using the Roche Light Cycler Software to determine the melting temperature (Tm ° C.) of each sample. A mean Tm ° C. for the negative control is calculated and subtracted from each of the samples to generate the ΔTm ° C. values for each of the ligands.
The relative binding affinity to hSTING c-terminal domain of the compounds of the present invention was determined by the above assay, and ΔTm ° C. values are shown in the following Table 3.

T1 sequence (Q86WV6 whole entry H232R): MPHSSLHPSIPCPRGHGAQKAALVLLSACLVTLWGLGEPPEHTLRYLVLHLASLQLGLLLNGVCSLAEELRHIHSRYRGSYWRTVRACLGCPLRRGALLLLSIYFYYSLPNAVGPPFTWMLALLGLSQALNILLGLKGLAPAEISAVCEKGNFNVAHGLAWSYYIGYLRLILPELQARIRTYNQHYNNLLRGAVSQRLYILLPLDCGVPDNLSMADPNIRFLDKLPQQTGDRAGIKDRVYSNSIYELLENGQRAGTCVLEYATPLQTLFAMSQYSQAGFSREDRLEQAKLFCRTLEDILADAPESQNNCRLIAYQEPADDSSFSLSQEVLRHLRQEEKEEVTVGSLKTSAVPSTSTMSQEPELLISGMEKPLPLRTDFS
T2 sequence (Q86WV6 154-342 H232R): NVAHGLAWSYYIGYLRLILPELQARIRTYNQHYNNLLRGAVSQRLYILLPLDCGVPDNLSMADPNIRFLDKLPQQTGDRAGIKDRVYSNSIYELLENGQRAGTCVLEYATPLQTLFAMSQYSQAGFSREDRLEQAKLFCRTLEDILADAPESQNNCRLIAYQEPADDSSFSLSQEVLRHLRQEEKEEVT

EC50 [1] [nM] | ΔTm at 100 µM [3] [°C] | SMILES | EC50 [2] [µM]
180 |  | CCn1nc(C)cc1C(=O)Nc1nc2cc(C(N)=O)cc3c2n1[C@@H](C/C=C/C[C@H]1CN(CCCOC)c2cc(C(N)=O)cc4nc(NC(=O)c5cc(C)nn5CC)n1c24)CN3C [Example 13, (S)-4-((E)-4-((S)-8-carbamoyl-2-(1-ethyl-3-methyl-1H-pyrazole-5-carboxamido)-6-(3-methoxypropyl)-5,6-dihydro-4H-imidazo[1,5,4-de]quinoxalin-4-yl)but-2-en-1-yl)-2-(1-ethyl-3-methyl-1H-pyrazole-5-carboxamido)-6-methyl-5,6-dihydro-4H-imidazo[1,5,4-de]quinoxaline-8-carboxamide] | 
150 |  | CCn1nc(C)cc1C(=O)Nc1nc2cc(C(N)=O)cc3c2n1[C@@H](C/C=C/C[C@H]1CN(CCCOC)c2cc(C(N)=O)cc4nc(NC(=O)c5cc(C)nn5CC)n1c24)CN3CCCOC [Example 11, (4S,4′S)-4,4′-((E)-but-2-ene-1,4-diyl)bis(2-(1-ethyl-3-methyl-1H-pyrazole-5-carboxamido)-6-(3-methoxypropyl)-5,6-dihydro-4H-imidazo[1,5,4-de]quinoxaline-8-carboxamide)] | 0.19
11500 | 7.5 | CCn1nc(C)cc1C(=O)Nc1nc2cc(C(N)=O)cc3c2n1[C@@H](C/C=C/C[C@H]1COc2cc(C(N)=O)cc4nc(NC(=O)C(C)(C)C)n1c24)CO3 [Example 4, (S)-3-((E)-4-((S)-7-carbamoyl-2-(1-ethyl-3-methyl-1H-pyrazole-5-carboxamido)-3,4-dihydro-5-oxa-1,2a-diazaacenaphthylen-3-yl)but-2-en-1-yl)-2-pivalamido-3,4-dihydro-5-oxa-1,2a-diazaacenaphthylene-7-carboxamide] | 
140 |  | CCn1nc(C)cc1C(=O)Nc1nc2cc(C(N)=O)cc3c2n1[C@@H](C/C=C\C[C@H]1CN(CCCOC)c2cc(C(N)=O)cc4nc(NC(=O)c5cc(C)nn5CC)n1c24)CN3CCCOC [Example 12, (4S,4′S)-4,4′-((Z)-but-2-ene-1,4-diyl)bis(2-(1-ethyl-3-methyl-1H-pyrazole-5-carboxamido)-6-(3-methoxypropyl)-5,6-dihydro-4H-imidazo[1,5,4-de]quinoxaline-8-carboxamide)] | 0.058
 | 6.2 | CCn1nc(C)cc1C(=O)Nc1nc2cc(C(N)=O)cc3c2n1C(CC=CCC1CCCOc2cc(C(N)=O)cc4nc(NC(=O)c5cc(C)nn5CC)n1c24)CCCO3 (centres unmarked) [Example 7, 10,10″-(but-2-ene-1,4-diyl)bis(1-(1-ethyl-3-methyl-1H-pyrazole-5-carboxamido)-7,8,9,10-tetrahydro-6-oxa-2,10a-diazacycloocta[cd]indene-4-carboxamide)] | 
54 |  | CCn1nc(C)cc1C(=O)Nc1nc2cc(C(N)=O)cc3c2n1[C@@H](C/C=C/C[C@H]1CN(C)c2cc(C(N)=O)cc4nc(NC(=O)c5cc(C)nn5CC)n1c24)CN3C [Example 9, (4S,4′S)-4,4′-((E)-but-2-ene-1,4-diyl)bis(2-(1-ethyl-3-methyl-1H-pyrazole-5-carboxamido)-6-methyl-5,6-dihydro-4H-imidazo[1,5,4-de]quinoxaline-8-carboxamide)] | 0.14
6 | 12.2 | CCn1nc(C)cc1C(=O)Nc1nc2cc(C(N)=O)cc3c2n1[C@@H](C/C=C\C[C@H]1COc2cc(C(N)=O)cc4nc(NC(=O)c5cc(C)nn5CC)n1c24)CO3 [Example 2, (3S,3″S)-3,3″-((Z)-but-2-ene-1,4-diyl)bis(2-(1-ethyl-3-methyl-1H-pyrazole-5-carboxamido)-3,4-dihydro-5-oxa-1,2a-diazaacenaphthylene-7-carboxamide)] | 0.026
60 |  | CCn1nc(C)cc1C(=O)Nc1nc2cc(C(N)=O)cc3c2n1[C@@H](C/C=C\C[C@H]1CN(CCCOC)c2cc(C(N)=O)cc4nc(NC(=O)c5cc(C)nn5CC)n1c24)CN3C [Example 14, (S)-4-((Z)-4-((S)-8-carbamoyl-2-(1-ethyl-3-methyl-1H-pyrazole-5-carboxamido)-6-(3-methoxypropyl)-5,6-dihydro-4H-imidazo[1,5,4-de]quinoxalin-4-yl)but-2-en-1-yl)-2-(1-ethyl-3-methyl-1H-pyrazole-5-carboxamido)-6-methyl-5,6-dihydro-4H-imidazo[1,5,4-de]quinoxaline-8-carboxamide] | 
430 | 9.1 | CCn1nc(C)cc1C(=O)Nc1nc2cc(C(N)=O)cc3c2n1[C@@H](CCCC[C@H]1COc2cc(C(N)=O)cc4nc(NC(=O)c5cc(C)nn5CC)n1c24)CO3 [Example 5, (3S,3″S)-3,3″-(butane-1,4-diyl)bis(2-(1-ethyl-3-methyl-1H-pyrazole-5-carboxamido)-3,4-dihydro-5-oxa-1,2a-diazaacenaphthylene-7-carboxamide)] | 
12 |  | CCn1nc(C)cc1C(=O)Nc1nc2cc(C(N)=O)cc3c2n1[C@@H](C/C=C\C[C@H]1CN(C)c2cc(C(N)=O)cc4nc(NC(=O)c5cc(C)nn5CC)n1c24)CN3C [Example 10, (4S,4′S)-4,4′-((Z)-but-2-ene-1,4-diyl)bis(2-(1-ethyl-3-methyl-1H-pyrazole-5-carboxamido)-6-methyl-5,6-dihydro-4H-imidazo[1,5,4-de]quinoxaline-8-carboxamide)] | 0.05
6400 |  | CCn1nc(C)cc1C(=O)Nc1nc2cc(C(N)=O)cc3c2n1C(CC=CC[C@H]1COc2cc(C(N)=O)cc4nc(NC(=O)c5cc(C)nn5CC)n1c24)CCCO3 (stereo partly drawn) [Example 8, 10-(4-((S)-7-carbamoyl-2-(1-ethyl-3-methyl-1H-pyrazole-5-carboxamido)-3,4-dihydro-5-oxa-1,2a-diazaacenaphthylen-3-yl)but-2-en-1-yl)-1-(1-ethyl-3-methyl-1H-pyrazole-5-carboxamido)-7,8,9,10-tetrahydro-6-oxa-2,10a-diazacycloocta[cd]indene-4-carboxamide] | 
200 | 14.6 | CCn1nc(C)cc1C(=O)Nc1nc2cc(C(N)=O)cc3c2n1[C@@H](C/C=C/C[C@H]1COc2cc(C(N)=O)cc4nc(NC(=O)c5cc(C)nn5CC)n1c24)CO3 [Example 1, (3S,3″S)-3,3″-((E)-but-2-ene-1,4-diyl)bis(2-(1-ethyl-3-methyl-1H-pyrazole-5-carboxamido)-3,4-dihydro-5-oxa-1,2a-diazaacenaphthylene-7-carboxamide)] | 0.22
 | 5.9 | CCn1nc(C)cc1C(=O)Nc1nc2cc(C(=O)O)cc3c2n1[C@@H](C/C=C/C[C@H]1COc2cc(C(=O)O)cc4nc(NC(=O)c5cc(C)nn5CC)n1c24)CO3 [Example 3, (3S,3″S)-3,3″-((E)-but-2-ene-1,4-diyl)bis(2-(1-ethyl-3-methyl-1H-pyrazole-5-carboxamido)-3,4-dihydro-5-oxa-1,2a-diazaacenaphthylene-7-carboxylic acid)] | 
